Experiments:
[1] = tested on: Culex quinquefasciatus mosquito; experiment: USDA Petri Dish Method, 3 min exposure to treated glazed tile (twenty 4-6 day old females); type: in vivo; conditions: Table 73, in acetone, glazed tiles, 3′ exposure time
Method: (§1) MATERIALS AND METHODS: Solutions of resmethrin at 1 and 0.5% AI were prepared with and without adjuvant in acetone. […] USDA Petri Dish Method was used as initial screening protocol. Twenty, 4-6 day old female Culex quinquefasciatus mosquitoes were exposed to each treatment for 3 minutes and then moved to a clean untreated white paper index card. Treatments were replicated a minimum of three times. Mosquito knockdown was evaluated at 3 minute intervals for the first 15 minutes and then at 5 minute intervals for the remainder of an hour. A small cotton ball soaked in sucrose solution was added on the screen top of the petri-dish as a drinking source after the 2 hour evaluation. Mortality was evaluated at 24 hours after exposure.
(§2) Treatments were allowed to dry overnight. USDA Petri Dish Method was used as initial screening protocol. Twenty, 4-6 day old female Culex mosquitoes were exposed to each treatment for 3 minutes and then moved to a clean untreated white paper index card. Treatments were replicated a minimum of three times. Mosquito knockdown was evaluated at various intervals through 3 hours after exposure. A small cotton ball soaked in sucrose solution was added on the screen top of the petri-dish as a drinking source. Mortality was evaluated at 24 hours after exposure.
as §2, with “female Culex quinquefasciatus mosquitoes were” for “female Culex mosquitoes were”, “intervals through 2 hours after” for “intervals through 3 hours after”, “solution was then added on” for “solution was added on”
as §2, with “Culex quinquefasciatus” for “Culex”, “hourly intervals.” for “intervals through 3 hours after exposure.”, “source after 2 hours.” for “source.”

Aedes aegypti mosquito = experiment: USDA Petri Dish Method, 3 min exposure to treated glazed tile; type: in vivo; conditions: glazed tile, 3 min exposure
Method: as §2, with “female Aedes aegypti” for “female Culex”, “through 7” for “through 3”
as §1, with “Aedes aegypti” for “Culex quinquefasciatus”, “source.” for “source after the 2 hour evaluation.”
as §2, with “female Aedes aegypti” for “female Culex”, “through 6” for “through 3”
as §2, with “Aedes aegypti” for “Culex”, “5 minute” for “various”, “for the first hour and then at 2, 4 and 6 hours.” for “through 3 hours after exposure.”
Treatments were allowed to dry overnight. USDA Petri Dish Method was used as initial screening protocol. Twenty, 4-6 day old female Aedes aegypti mosquitoes were exposed to each treatment for 3 minutes and then moved to a clean untreated white paper index card. Treatments were replicated a minimum of three times. Mosquito knockdown was evaluated at 3-5 minute intervals for the first hour. A small cotton ball soaked in sucrose solution was then added on the screen top of the petri-dish as a drinking source. Mortality was evaluated at 24 hours after exposure.
as §2, with “old female Aedes aegypti mosquitoes were” for “old female Culex mosquitoes were”, “intervals through 2 hours after” for “intervals through 3 hours after”, “solution was then added on” for “solution was added on”
Treatments were allowed to dry overnight. USDA Petri Dish Method was used as initial screening protocol. Twenty, 4-6 day old female Aedes aegypti mosquitoes were exposed to each treatment for 3 minutes and then moved to a clean untreated white paper index card. Treatments were replicated a minimum of three times. Mosquito knockdown was evaluated at various hourly intervals. […]

[2] = tested on: Argentine ant, Linepithema humile; experiment: Knockdown/mortality of ant workers under continuous exposure on treated glazed tile; conditions: glazed tile
Method: (§3) Solutions of imidacloprid at 0.5% AI were prepared with and without methyl oleate @0.1, 1.0 and 5.0% in acetone. Treatments were applied using a micropipette to dispense 1 ml of test solution evenly on a 6″×6″ glazed tile. Actual coverage was about 5″×5″ (or 161 cm^2) for easy handling. Treatments were allowed to dry overnight. Ten Argentine ant workers were placed within a fluon or talc-coated PVC ring (φ7.6 cm×H 5.1 cm) under continuous exposure. A small vial filled with a cotton ball soaked in water was added as a drinking source after 3 hours. Treatments were replicated a minimum of three times. Evaluations for ant knockdown/mortality were made at various intervals and at 24 hours after exposure.
as §3, with “MATERIALS AND METHODS: Solutions” for “Solutions”, “linoleate” for “oleate”
as §3, with “MATERIALS AND METHODS: Solutions of” for “Solutions of”, “without methyl palmitate @0.1, 1.0” for “without methyl oleate @0.1, 1.0”, “after exposure. […]” for “after exposure.”

[3] = tested on: Red Imported Fire ant (RIFA), Solenopsis invicta; experiment: as above; type: in vivo; conditions: Table 52, fipronil/adjuvant in acetone, glazed tile
Text: (§4) Treatments were allowed to dry overnight. […] Treatments were replicated minimum three times.
(§5) Treatments were allowed to dry overnight. […] Treatments were replicated a minimum of three times.

[4] = tested on: susceptible/normal German cockroach (Monheim strain), Blattella germanica; experiment: Knockdown/mortality of male cockroaches under continuous exposure on treated glazed tile; type: in vivo; conditions: glazed tile, Monheim strain
Method: Treatments were allowed to dry overnight. […] Treatments were replicated a minimum of three times. […]
Treatments were allowed to dry overnight. […] Treatments were replicated a minimum of three times. Cockroach knockdown/mortality was evaluated at 5 minute intervals for the first 60 minutes after exposure and then at 2, 18 and 24 hours.

[5] = tested on: Odorous House ant, Tapinoma sessile; experiment: Knockdown/mortality of ant workers under continuous exposure on treated glazed tile; type: in vivo; conditions: glazed tile
Text: Actual coverage was about 5″×5″ (or 161 cm2) for easy handling. Treatments were allowed to dry overnight. […] Treatments were replicated minimum three times.
as §4, §5
Treatments were allowed to dry overnight. […] Treatments were replicated minimum of three times. […] The results are shown in FIG. 84 (No adjuvant alone treatment was performed).

[6] = Table 53, fipronil/adjuvant in acetone
[7] = Table 36, thiamethoxam/adjuvant in acetone

CNC(=O)Oc1cccc2c1OC(C)(C)O2 [0.1% = 50 mg Bendiocarb/m^2]
% KD and Mortality 3′ ([1]; 20 insects (three replicates), 3′): 0%
% KD and Mortality 9′ ([1]; 20 insects, 9′): 0%
% KD and Mortality 15′ ([1]; 20 insects, 15′): 0%
% KD and Mortality 30′ ([1]; 20 insects, 30′): 15%
% KD and Mortality 1 h ([1]; 20 insects, 1 h): 37%
% KD and Mortality 24 h ([1]; 20 insects, 24 h): 81%

N#Cc1nn(-c2c(Cl)cc(C(F)(F)F)cc2Cl)c(N)c1[S+]([O-])C(F)(F)F (centres unmarked) [Fipronil (.0001%)]
Average % Knockdown & Mortality after 15 min (Aedes aegypti mosquito; 15 min, Table 48, fipronil/adjuvant in acetone): 0%
Average % Knockdown & Mortality after 30 min (Aedes aegypti mosquito; 30 min, Table 48, fipronil/adjuvant in acetone): 0%
Average % Knockdown & Mortality after 60 min (Aedes aegypti mosquito; 60 min, Table 48, fipronil/adjuvant in acetone): 0%
Average % Knockdown & Mortality after 4 hr (Aedes aegypti mosquito; 4 hr, Table 48, fipronil/adjuvant in acetone): 3%
Average % Knockdown & Mortality after 6 hr (Aedes aegypti mosquito; 6 hr, Table 48, fipronil/adjuvant in acetone): 3%
Average % Knockdown & Mortality after 24 hr (Aedes aegypti mosquito; Table 48, fipronil/adjuvant in acetone): 9%
Average % Mortality after 30 min ([2]; 30 min, Table 49, fipronil/adjuvant in acetone): 0%
Average % Mortality after 60 min ([2]; 60 min, Table 49, fipronil/adjuvant in acetone): 0%
Average % Mortality after 2 hr ([2]; 2 hr, Table 49, fipronil/adjuvant in acetone): 0%
Average % Mortality after 3 hr ([2]; Table 49, fipronil/adjuvant in acetone): 0%
Average % Mortality after 24 hr ([2]; 24 hr, Table 49, fipronil/adjuvant in acetone): 74%
Average % Mortality after 30 min ([3]; 30 min): 3%
Average % Mortality after 60 min ([3]; 60 min): 3%
Average % Mortality after 2 hr ([3]; 2 hr): 3%
Average % Mortality after 3 hr ([3]; 3 hr): 6%
Average % Mortality after 24 hr ([3]; 24 hr): 47%
Average % Knockdown & Mortality after 60 min [4, 6]: 0%
Average % Knockdown & Mortality after 3 hr [4, 6]: 7%
Average % Knockdown & Mortality after 5 hr ([4]; 5 hr, Table 53, fipronil/adjuvant in acetone): 7%
Average % Knockdown & Mortality after 24 hr [4, 6]: 7%
Average % Mortality after 30 min ([5]; 30 min, Table 51, fipronil/adjuvant in acetone): 0%
Average % Mortality after 60 min ([5]; 60 min, Table 51, fipronil/adjuvant in acetone): 3%
Average % Mortality after 2 hr ([5]; 2 hr, Table 51, fipronil/adjuvant in acetone): 3%
Average % Mortality after 24 hr ([5]; 24 hr, Table 51, fipronil/adjuvant in acetone): 54%

CN1COCN(Cc2cnc(Cl)s2)/C1=N\[N+](=O)[O-] [Thiamethoxam (0.01%)]
Average % Knockdown & Mortality after 2 hr (Aedes aegypti mosquito; 2 hr, Table 33, thiamethoxam/adjuvant in acetone): 0%
Average % Knockdown & Mortality after 3 hr (Aedes aegypti mosquito; 3 hr, Table 33, thiamethoxam/adjuvant in acetone): 0%
Average % Knockdown & Mortality after 7 hr (Aedes aegypti mosquito; 7 hr, Table 33, thiamethoxam/adjuvant in acetone): 0%
Average % Knockdown & Mortality after 24 hr (Aedes aegypti mosquito; Table 33, thiamethoxam/adjuvant in acetone): 0%
Average % Mortality after 15 min ([2]; 15 min, Table 34, thiamethoxam/adjuvant in acetone): 0%
Average % Mortality after 3 hr ([2]; Table 34, thiamethoxam/adjuvant in acetone): 19%
Average % Mortality after 21 hr ([2]; 21 hr, Table 34, thiamethoxam/adjuvant in acetone): 100%
Average % Knockdown & Mortality after 30 min ([4]; 30 min, Table 36, thiamethoxam/adjuvant in acetone): 13%
Average % Knockdown & Mortality after 60 min [4, 7]: 67%
Average % Knockdown & Mortality after 90 min ([4]; 90 min, Table 36, thiamethoxam/adjuvant in acetone): 87%
Average % Knockdown & Mortality after 3 hr [4, 7]: 100%
Average % Knockdown & Mortality after 24 hr [4, 7]: 100%
Average % Knockdown & Mortality after 15 min ([5]; 15 min, Table 35, thiamethoxam/adjuvant in acetone): 0%
Average % Knockdown & Mortality after 30 min ([5]; 30 min, Table 35, thiamethoxam/adjuvant in acetone): 0%
Average % Knockdown & Mortality after 60 min ([5]; 60 min, Table 35, thiamethoxam/adjuvant in acetone): 0%
Average % Knockdown & Mortality after 2 hr ([5]; 2 hr, Table 35, thiamethoxam/adjuvant in acetone): 9%
Average % Knockdown & Mortality after 20 hr ([5]; 20 hr, Table 35, thiamethoxam/adjuvant in acetone): 71%

From US9028856B2, “Synergistic pesticide compositions” (priority 2008, dated 2015)
